According to ChEMBL document CHEMBL6074624, “FDA-approved small molecule kinase inhibitors for cancer treatment (2001-2015): Medical indication, structural optimization, and binding mode Part I” (Bioorg Med Chem, 2024):
Values belong to the molecule of their own block, whether it stands above or below them.

Tests used:
[1] = Cytotoxicity against HUVEC cells assessed as reduction in cell viability after 72 hrs by CellTiter-Glo assay; assay type: toxicity, cell-based; settings: human
[2] = target: Tyrosine-protein kinase Lck (Homo sapiens, UniProt P06239); test: Inhibition of human LCK
Tyrosine-protein kinase Lck, sequence (P06239 whole entry): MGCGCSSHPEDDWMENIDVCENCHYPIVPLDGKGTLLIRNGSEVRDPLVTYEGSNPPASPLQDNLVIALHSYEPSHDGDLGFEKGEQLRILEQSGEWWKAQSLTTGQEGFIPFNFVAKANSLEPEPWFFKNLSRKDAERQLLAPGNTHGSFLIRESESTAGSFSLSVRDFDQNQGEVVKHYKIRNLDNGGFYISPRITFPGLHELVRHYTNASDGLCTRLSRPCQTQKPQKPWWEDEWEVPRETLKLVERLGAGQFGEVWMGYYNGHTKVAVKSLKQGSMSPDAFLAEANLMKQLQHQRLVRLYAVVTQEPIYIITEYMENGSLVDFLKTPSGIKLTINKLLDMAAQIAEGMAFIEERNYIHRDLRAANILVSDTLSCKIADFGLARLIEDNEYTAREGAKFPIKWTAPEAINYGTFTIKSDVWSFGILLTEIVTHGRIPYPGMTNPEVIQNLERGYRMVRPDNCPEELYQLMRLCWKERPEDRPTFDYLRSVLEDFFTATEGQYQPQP

[3] = test system: A549; test: cells; settings: Homo sapiens, A549, 72 h
[4] = Inhibition of Bcr-Abl T315Ialpha mutant (unknown origin); set-up: species or system Homo sapiens
[5] = test system: ACHN; test: Antiproliferative activity against human ACHN cells assessed as reduction in cell viability measured after 48 hrs by SRB assay; assay type: functional, cell-based
[6] = test system: HT-29; test: Antiproliferative activity against human HT-29 cells assessed as reduction in cell viability after 72 hrs by MTS assay; assay type: functional, cell-based; settings: HT-29, 72 h
[7] = target: T1, Vascular endothelial growth factor receptor 2 (Homo sapiens, UniProt P35968); test: Binding affinity to VEGFR-2 (unknown origin) assessed as inhibition constant
T1 sequence (P35968 whole entry): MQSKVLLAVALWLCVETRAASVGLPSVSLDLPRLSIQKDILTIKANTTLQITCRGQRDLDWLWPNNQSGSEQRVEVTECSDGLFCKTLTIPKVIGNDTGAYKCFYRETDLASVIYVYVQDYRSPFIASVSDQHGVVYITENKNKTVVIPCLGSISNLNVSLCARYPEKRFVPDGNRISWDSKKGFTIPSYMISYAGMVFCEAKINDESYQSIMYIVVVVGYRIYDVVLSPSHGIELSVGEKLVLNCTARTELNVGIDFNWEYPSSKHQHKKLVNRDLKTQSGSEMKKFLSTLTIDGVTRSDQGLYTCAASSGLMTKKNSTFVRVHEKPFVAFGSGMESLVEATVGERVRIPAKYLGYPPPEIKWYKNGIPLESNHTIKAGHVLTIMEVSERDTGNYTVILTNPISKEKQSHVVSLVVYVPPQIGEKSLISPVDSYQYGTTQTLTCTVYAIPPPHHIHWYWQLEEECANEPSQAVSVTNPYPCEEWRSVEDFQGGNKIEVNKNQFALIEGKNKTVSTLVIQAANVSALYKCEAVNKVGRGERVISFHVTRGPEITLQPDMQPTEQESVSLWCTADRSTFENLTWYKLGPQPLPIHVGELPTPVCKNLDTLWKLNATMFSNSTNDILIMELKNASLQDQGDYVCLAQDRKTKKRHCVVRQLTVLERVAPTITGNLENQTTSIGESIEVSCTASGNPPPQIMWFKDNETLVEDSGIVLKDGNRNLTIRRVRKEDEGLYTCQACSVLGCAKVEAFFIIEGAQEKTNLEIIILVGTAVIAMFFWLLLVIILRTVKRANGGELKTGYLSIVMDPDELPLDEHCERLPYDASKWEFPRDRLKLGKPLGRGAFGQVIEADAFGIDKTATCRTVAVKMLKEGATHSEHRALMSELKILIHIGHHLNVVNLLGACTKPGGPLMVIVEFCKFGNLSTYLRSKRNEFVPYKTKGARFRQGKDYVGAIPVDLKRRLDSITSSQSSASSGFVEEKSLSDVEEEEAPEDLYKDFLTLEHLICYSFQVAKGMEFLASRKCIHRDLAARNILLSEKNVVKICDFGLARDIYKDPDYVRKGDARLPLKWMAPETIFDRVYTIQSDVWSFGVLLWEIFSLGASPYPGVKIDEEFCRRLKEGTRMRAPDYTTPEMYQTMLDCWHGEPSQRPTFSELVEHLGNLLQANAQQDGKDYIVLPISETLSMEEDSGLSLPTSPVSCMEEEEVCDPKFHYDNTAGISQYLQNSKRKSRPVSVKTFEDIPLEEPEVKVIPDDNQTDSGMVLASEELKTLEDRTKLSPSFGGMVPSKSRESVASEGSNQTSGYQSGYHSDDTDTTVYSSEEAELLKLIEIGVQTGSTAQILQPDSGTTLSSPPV

[8] = Inhibition of PDGFR (unknown origin) in NIH3T3 cells; assay type: cell-based, Homo sapiens
[9] = target: Epidermal growth factor receptor (Homo sapiens, UniProt P00533, L858R/T790M); test: Inhibition of EGFR L858R/T790M (unknown origin)
Epidermal growth factor receptor (Homo sapiens, UniProt P00533, L858R/T790M), sequence (P00533 25-1210 T790M/L858R limits assumed): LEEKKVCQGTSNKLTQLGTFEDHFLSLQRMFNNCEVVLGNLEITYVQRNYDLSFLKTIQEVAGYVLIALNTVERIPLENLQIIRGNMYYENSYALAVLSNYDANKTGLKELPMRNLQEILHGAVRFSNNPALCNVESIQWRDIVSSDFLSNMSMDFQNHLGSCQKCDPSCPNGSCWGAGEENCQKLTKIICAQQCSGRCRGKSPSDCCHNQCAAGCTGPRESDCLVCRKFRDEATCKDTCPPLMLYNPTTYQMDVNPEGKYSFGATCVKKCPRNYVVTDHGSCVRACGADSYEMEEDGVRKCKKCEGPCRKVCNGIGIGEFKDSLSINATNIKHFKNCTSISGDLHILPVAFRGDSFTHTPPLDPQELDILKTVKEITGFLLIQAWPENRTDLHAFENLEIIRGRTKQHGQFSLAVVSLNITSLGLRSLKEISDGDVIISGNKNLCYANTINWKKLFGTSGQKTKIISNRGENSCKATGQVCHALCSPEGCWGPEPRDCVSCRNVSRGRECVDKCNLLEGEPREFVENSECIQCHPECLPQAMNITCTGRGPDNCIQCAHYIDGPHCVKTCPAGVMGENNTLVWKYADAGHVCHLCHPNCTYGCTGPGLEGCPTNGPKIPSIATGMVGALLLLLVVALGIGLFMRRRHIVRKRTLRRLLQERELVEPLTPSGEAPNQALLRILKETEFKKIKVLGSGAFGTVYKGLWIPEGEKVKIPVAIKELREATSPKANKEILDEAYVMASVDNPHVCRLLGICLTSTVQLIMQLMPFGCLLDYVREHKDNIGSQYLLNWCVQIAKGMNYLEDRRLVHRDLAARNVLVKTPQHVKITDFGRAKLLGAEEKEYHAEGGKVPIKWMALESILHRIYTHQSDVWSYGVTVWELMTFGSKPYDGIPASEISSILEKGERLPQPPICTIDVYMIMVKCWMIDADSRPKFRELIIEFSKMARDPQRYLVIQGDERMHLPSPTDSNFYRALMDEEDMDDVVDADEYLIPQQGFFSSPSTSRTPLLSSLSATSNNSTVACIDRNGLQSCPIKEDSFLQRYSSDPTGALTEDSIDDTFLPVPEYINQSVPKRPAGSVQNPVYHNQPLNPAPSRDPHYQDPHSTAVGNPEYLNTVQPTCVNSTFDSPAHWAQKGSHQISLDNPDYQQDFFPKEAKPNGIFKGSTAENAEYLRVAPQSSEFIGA

[10] = test system: NCI-H1975; test: Antiproliferative activity against human NCI-H1975 cells assessed as reduction in cell viability after 24 hrs by MTT assay; assay type: functional, cell-based; settings: NCI-H1975, 24 h
[11] = Volume of distribution at steady state in Sprague-Dawley rat at 10 mg/kg, iv by LC-MS/MS analysis; assay type: ADME, organism-based; settings: in vivo, read-out: Vdss
[12] = Oral bioavailability in Sprague-Dawley rat at 10 mg/kg by LC-MS analysis; assay type: ADME, organism-based; settings: in vivo
[13] = Clearance in Sprague-Dawley rat at 10 mg/kg, iv by LC-MS/MS analysis; assay type: ADME, organism-based; settings: in vivo
[14] = target: Epidermal growth factor receptor (Homo sapiens, UniProt P00533)
Epidermal growth factor receptor (Homo sapiens, UniProt P00533), sequence (P00533 whole entry): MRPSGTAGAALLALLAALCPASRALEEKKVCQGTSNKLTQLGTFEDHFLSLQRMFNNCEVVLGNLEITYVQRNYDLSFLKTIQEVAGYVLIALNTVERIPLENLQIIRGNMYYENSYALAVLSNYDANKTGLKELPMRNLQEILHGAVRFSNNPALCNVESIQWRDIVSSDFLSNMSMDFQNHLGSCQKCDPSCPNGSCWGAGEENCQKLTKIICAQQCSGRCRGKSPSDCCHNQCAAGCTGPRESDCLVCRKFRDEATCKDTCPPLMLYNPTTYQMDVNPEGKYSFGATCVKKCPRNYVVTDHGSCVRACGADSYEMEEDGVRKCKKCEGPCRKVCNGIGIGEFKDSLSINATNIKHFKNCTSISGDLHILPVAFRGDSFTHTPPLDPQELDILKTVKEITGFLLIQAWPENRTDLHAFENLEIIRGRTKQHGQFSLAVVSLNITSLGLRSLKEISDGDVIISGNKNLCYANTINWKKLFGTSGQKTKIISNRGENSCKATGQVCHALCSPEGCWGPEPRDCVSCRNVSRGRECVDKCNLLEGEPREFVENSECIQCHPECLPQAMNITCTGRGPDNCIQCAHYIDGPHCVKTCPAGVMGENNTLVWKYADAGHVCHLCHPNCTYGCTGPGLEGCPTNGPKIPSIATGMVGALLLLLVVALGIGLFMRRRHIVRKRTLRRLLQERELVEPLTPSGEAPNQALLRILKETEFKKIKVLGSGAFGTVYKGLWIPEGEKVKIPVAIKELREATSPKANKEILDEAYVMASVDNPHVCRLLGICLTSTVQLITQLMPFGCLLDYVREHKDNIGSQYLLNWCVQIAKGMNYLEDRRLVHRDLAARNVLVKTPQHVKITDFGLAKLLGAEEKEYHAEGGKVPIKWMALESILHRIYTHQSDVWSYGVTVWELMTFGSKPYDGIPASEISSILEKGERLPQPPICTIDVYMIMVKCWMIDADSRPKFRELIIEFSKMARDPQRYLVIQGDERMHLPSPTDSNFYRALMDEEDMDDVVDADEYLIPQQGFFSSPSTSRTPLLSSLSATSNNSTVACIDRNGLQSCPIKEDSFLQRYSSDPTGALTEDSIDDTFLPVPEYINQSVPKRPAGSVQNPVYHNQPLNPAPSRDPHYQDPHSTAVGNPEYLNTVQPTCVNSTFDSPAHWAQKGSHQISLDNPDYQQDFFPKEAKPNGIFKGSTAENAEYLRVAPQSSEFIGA

[15] = test system: KB; test: cells; settings: Homo sapiens, 72 h
[16] = test system: NCI-H1975; test: Antitumor activity against human NCI-H1975 cells xenografted in female nude mouse assessed as tumor growth inhibition at 20 mg/kg, po adminstered once daily for 25 days relative to control; assay type: functional; settings: NCI-H1975, 600 h, time 25 day, read-out: TGI
[17] = test system: MDA-MB-231; test: Antitumor activity against human MDA-MB-231 cells xenografted in nu/nu CD-1 mouse assessed as reduction in tumor growth at 3 mg/kg, po administered once daily for 14 days relative to control; assay type: functional; settings: MDA-MB-231, 336 h, time 14 day, read-out: TGI
[18] = test system: COLO 205; test: Antitumor activity against human COLO 205 cells xenografted in nu/nu CD-1 mouse assessed as reduction in tumor growth at 100 mg/kg, po administered once daily for 14 days relative to control; assay type: functional; settings: COLO 205, 336 h, time 14 day, read-out: TGI
[19] = test system: 786-0; test: Antitumor activity against human 786-0 cells xenografted in nu/nu CD-1 mouse assessed as reduction in tumor growth at 10 mg/kg, po administered once daily for 21 days relative to control; assay type: functional; settings: 786-0, 504 h, time 21 day, read-out: TGI
[20] = AUC (0 to infinity) in mouse at 50 mg/kg, po; assay type: ADME, organism-based; settings: in vivo
[21] = test system: PC-9; test: Antiproliferative activity against human PC-9 cells assessed as reduction in cell growth incubated for 72 hrs by MTT assay; assay type: functional, cell-based; settings: PC-9, 72 h
[22] = Half life in mouse at 10 mg/kg, po by LC-MS/MS analysis; assay type: ADME, organism-based; settings: in vivo
[23] = target: T1, Vascular endothelial growth factor receptor 2; test: Inhibition of VEGFR-2 (unknown origin) expressed in NIH3T3 cells assessed as reduction in VEGFA induced protein phosphorylation; assay type: cell-based
[24] = Half life in Sprague-Dawley rat at 5 mg/kg, iv by LC-MS analysis; assay type: ADME, organism-based; settings: in vivo
[25] = Oral bioavailability in dog at 5 mg/kg; assay type: ADME, organism-based, Canis lupus familiaris; settings: in vivo
[26] = Oral bioavailability in Sprague-Dawley rat at 5 mg/kg; assay type: ADME, organism-based; settings: in vivo
[27] = target: T1, Vascular endothelial growth factor receptor 2; test: Inhibition of VEGFR2 (unknown origin) phosphorylation in HUVEC cells; assay type: cell-based
[28] = Half life in dog at 5 mg/kg, iv; assay type: ADME, organism-based, Canis lupus familiaris; settings: in vivo
[29] = test system: Calu-6; test: Antitumor activity against human Calu-6 cells xenografted in athymic nude mouse assessed as tumor growth inhibition at 100 mg/kg, po administered once daily for 21 days relative to control; assay type: functional; set-up: scale not given: the % may be the effect or the level left; settings: time 21 day

Compound: Cc1ccc2cc(NC(=O)c3ccccc3Sc3ccc4c(/C=C/c5ccccn5)n[nH]c4c3)ccc2n1
IC50 at 72 h [1]: 0.8 nM

Compound: Cc1cccc(Cl)c1NC(=O)c1ccc2nc(Nc3cccc(NCCO)n3)sc2c1
IC50 [2]: 500 nM

IC50 [3]: 20 nM
Compound: CC(Oc1cc(-c2cnn(C3CCNCC3)c2)cnc1N)c1c(Cl)ccc(F)c1Cl (configuration not stated)

IC50 [4]: 359 nM
Compound: Cc1ccc(NC(=O)c2cc(C(C)(C)C)on2)cc1C#Cn1cnc2c(NC3CC3)ncnc21

IC50 [5]: 1270 nM
IC50 [6]: 100 nM
Compound: Cn1c(=O)cc(Nc2ccc(Br)cc2)c2c(=O)n(C3CC3)c(=O)n(-c3ccccc3)c21

Ki [7]: 4.5 nM
Compound: C(=C\c1n[nH]c2cc(Sc3ccccc3)ccc12)/c1ccccc1

IC50 [8]: 100 nM
Compound: CCN(CC)CCNC(=O)c1c(C)[nH]c(/C=C2\C(=O)Nc3ccccc32)c1C

IC50 [9]: 100 nM
IC50 [10]: 770 nM
Compound: COc1cc(N2CCN(C(C)=O)CC2)ccc1Nc1ncc(Cl)c(-c2c[nH]c3ccccc23)n1

Compound: Cc1nc(Nc2ncc(C(=O)Nc3c(C)cccc3Cl)s2)cc(N2CCN(CCO)CC2)n1 [DASATINIB ANHYDROUS]
Vd [11]: 6.3 L/kg
bioavailability [12]: 27%
clearance [13]: 26.4 mL/min/kg

Compound: Cc1cccc(Nc2ncnc3ccc(N)cc23)c1
IC50 [14]: 50 nM
IC50 [15]: 1000 nM

Compound: CN(C)C/C=C/C(=O)Nc1cc2c(Nc3ccc(F)c(Cl)c3)ncnc2cc1O[C@H]1CCOC1 [AFATINIB]
inhibition in vivo at 20 mg/kg [16]: 12%

Compound: CNC(=O)c1cc(Oc2ccc(NC(=O)Nc3ccc(Cl)c(C(F)(F)F)c3)c(F)c2)ccn1 [REGORAFENIB]
inhibition in vivo at 3 mg/kg [17]: 81%
inhibition in vivo at 100 mg/kg [18]: 75%
inhibition in vivo at 10 mg/kg [19]: > 90%

AUC(0-inf) [20]: 300 ng·h/mL
Compound: COc1cc(-c2ccc3[nH]nc(/C=C/c4ccc(OC)c(OC)c4)c3c2)ccc1O
IC50 at 72 h [1]: 18 nM

IC50 [5]: < 3000 nM
IC50 [6]: > 1000 nM
Compound: Cn1c(Nc2ccccc2)c2c(=O)n(C3CC3)c(=O)n(-c3ccc(Br)cc3)c2cc1=O

IC50 [9]: 60 nM
IC50 [10]: 20 nM
IC50 [21]: 150 nM
Compound: C=CC(=O)Nc1ccc(OC)c(Nc2ncc(Cl)c(-c3c[nH]c4ccccc34)n2)c1

IC50 [15]: 50 nM
half-life [22]: 1 h
Compound: COc1cc2ncnc(Nc3cccc(C)c3)c2cc1OC

IC50 [23]: 400 nM
IC50 [8]: 60900 nM
Compound: Cc1c[nH]c(/C=C2\C(=O)Nc3ccccc32)c1CCC(=O)O

half-life [24]: 1.3 h
bioavailability [25]: < 5%
bioavailability [26]: > 80%
IC50 [27]: 50 nM
half-life [28]: 1.1 h
Compound: COc1cc2c(Nc3ccc(Br)cc3F)ncnc2cc1OCCn1ccnn1 [ZD-4190 FREE BASE]
Activity [29]: 75%

Ki [7]: 5100 nM
Compound: COc1cc(/C=C/c2cc(/C=C/c3ccc(O)c(OC)c3)[nH]n2)ccc1O [CURCUMIN PYRAZOLE]
